Experimental data taken from patent US11919902B2, “Aryl-bipyridine amine derivatives as phosphatidylinositol phosphate kinase inhibitors” (HiberCell, Inc., priority 2017, dated 2024).

How the values were obtained:
[1] = biological target: T1, PIP4K2A (full length protein, SignalChem) (Homo sapiens, UniProt P48426); test: Kinase Assay PIP4K2 A (Sprint); ADP-Glo biochemical assay; conditions: Table 2; compounds listed under IC50 range headings
T1 construct: 4 nM PIP4K2A (full length protein, SignalChem); purchased SignalChem
T1 sequence (P48426 1-406): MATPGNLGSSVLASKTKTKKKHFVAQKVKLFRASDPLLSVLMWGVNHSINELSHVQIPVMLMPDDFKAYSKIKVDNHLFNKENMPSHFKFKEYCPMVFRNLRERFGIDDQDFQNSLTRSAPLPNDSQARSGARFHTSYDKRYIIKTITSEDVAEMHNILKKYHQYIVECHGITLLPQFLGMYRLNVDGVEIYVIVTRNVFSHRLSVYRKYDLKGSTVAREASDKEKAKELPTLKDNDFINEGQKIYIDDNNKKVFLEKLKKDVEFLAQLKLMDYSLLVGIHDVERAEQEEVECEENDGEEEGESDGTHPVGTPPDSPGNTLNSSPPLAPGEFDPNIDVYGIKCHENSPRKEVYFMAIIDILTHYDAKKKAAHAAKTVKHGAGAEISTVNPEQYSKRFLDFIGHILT
Procedure, shortened: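 ADP-Glo luminescence detected ADP after a 1 h RT reaction started with 60 μM ATP solution. Before that, full-length PIP4K2A (4 nM in mix) with 100 μM PI(5)P diC8 was pre-incubated 15 min with compounds in MOPS buffer pH 7.2, 25 mM MgCl2, 0.005% Tween 20. IC50 derived from % inhibition relative to DMSO over 10 three-fold concentrations.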

GST tagged PIP4KtypeIIB = biological target: T2, GST tagged PIP4KtypeIIB (Homo sapiens, UniProt P78356); test: Trans-FI P kinase assay PIP4K2B (PIP4KtypeIIB inhibition assay); type: biochemical; conditions: Table 4; compounds listed under IC50 range headings; 100 uM GTP, 5 nM PIP4KIIB; read-out: Trans-FI P kinase assays: PIP4K2B IC50
T2 construct: made in house; host or cells: E. coli
T2 sequence (P78356 1-416): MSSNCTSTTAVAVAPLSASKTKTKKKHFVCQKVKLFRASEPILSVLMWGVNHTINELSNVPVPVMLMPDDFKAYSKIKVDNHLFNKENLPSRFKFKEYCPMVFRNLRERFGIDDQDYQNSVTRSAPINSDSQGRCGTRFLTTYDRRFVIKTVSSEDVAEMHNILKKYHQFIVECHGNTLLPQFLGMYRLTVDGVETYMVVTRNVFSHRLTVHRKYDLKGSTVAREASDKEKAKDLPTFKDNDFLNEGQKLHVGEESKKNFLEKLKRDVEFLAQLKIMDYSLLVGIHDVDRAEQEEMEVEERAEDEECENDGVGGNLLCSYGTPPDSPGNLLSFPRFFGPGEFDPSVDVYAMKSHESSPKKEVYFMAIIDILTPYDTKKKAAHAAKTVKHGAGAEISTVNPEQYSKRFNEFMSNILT
Procedure, shortened: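 Transcreener FI fluorescence, converted to GDP by calibration, tracked product from 5 nM E. coli-expressed GST-PIP4KIIB acting on 80 uM PI5P (DOPE carrier) with 100 uM GTP. Compound (top 4.8 uM final, 5% DMSO) was preincubated 1 h at 27 C before the 2 h reaction; IC50 fitted from residual activity.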

Row | Compound | IC50 [1] [nM] | IC50 (GST tagged PIP4KtypeIIB) [nM]
1 | CC(C)c1cnnn1-c1ccc(-c2cncc(-c3ccnc4c3cc3n4CCN(c4ccccn4)C3=O)c2)cc1 [Example 357, 4-(5-(4-(5-isopropyl-1H-1,2,3-triazol-1-yl)phenyl)pyridin-3-yl)-7-(pyridin-2-yl)-8,9-dihydropyrido[3′,2′:4,5]pyrrolo[1,2-a]pyrazin-6(7H)-one] | 5 to 100 | 1 to 10
2 | CCn1cnnc1-c1ccc(-c2cncc(-c3ccnc4c3cc3n4CCN(C)C3=O)c2)cc1 [Example 358, 4-(5-(4-(4-ethyl-4H-1,2,4-triazol-3-yl)phenyl)pyridin-3-yl)-7-methyl-8,9-dihydropyrido[3′,2′:4,5]pyrrolo[1,2-a]pyrazin-6(7H)-one] | 100 to 1000 | 1 to 10
3 | CC(C)n1cncc1-c1ccc(-c2cncc(-c3ccnc4c3cc3n4CCN(C)C3=O)c2)cc1 [Example 359, 4-(5-(4-(1-isopropyl-1H-imidazol-5-yl)phenyl)pyridin-3-yl)-7-methyl-8,9-dihydropyrido[3′,2′:4,5]pyrrolo[1,2-a]pyrazin-6(7H)-one] | 100 to 1000 | 100 to 1000
4 | CC[C@H](C)n1cnnc1-c1ccc(-c2cncc(-c3ccnc4c3cc3n4CCN(C)C3=O)c2)cc1 [Example 360, (S)-4-(5-(4-(4-(sec-butyl)-4H-1,2,4-triazol-3-yl)phenyl)pyridin-3-yl)-7-methyl-8,9-dihydropyrido[3′,2′:4,5]pyrrolo[1,2-a]pyrazin-6(7H)-one] | 100 to 1000 | 10 to 100
5 | CC[C@@H](C)n1cnnc1-c1ccc(-c2cncc(-c3ccnc4c3cc3n4CCN(C)C3=O)c2)cc1 [Example 361, (R)-4-(5-(4-(4-(sec-butyl)-4H-1,2,4-triazol-3-yl)phenyl)pyridin-3-yl)-7-methyl-8,9-dihydropyrido[3′,2′:4,5]pyrrolo[1,2-a]pyrazin-6(7H)-one] | 100 to 1000 | 10 to 100
6 | CNC(=O)c1cc2c(-c3cnc(N)c(-c4ccc(-c5nncn5C(C)C)cc4)c3)ccnc2o1 [Example 362, 4-(6-amino-5-(4-(4-isopropyl-4H-1,2,4-triazol-3-yl)phenyl)pyridin-3-yl)-N-methylfuro[2,3-b]pyridine-2-carboxamide] | 100 to 1000 | 10 to 100
7 | CC(C)c1cnoc1-c1ccc(-c2cncc(-c3ccnc4c3cc3n4CCN(C)C3=O)c2)cc1 [Example 363, 4-(5-(4-(4-isopropylisoxazol-5-yl)phenyl)pyridin-3-yl)-7-methyl-8,9-dihydropyrido[3′,2′:4,5]pyrrolo[1,2-a]pyrazin-6(7H)-one] | 100 to 1000 | 10 to 100
8 | CC(C)n1ccnc1-c1ccc(-c2cncc(-c3ccnc4c3cc3n4CCN(C)C3=O)c2)cc1 [Example 364, 4-(5-(4-(1-isopropyl-1H-imidazol-2-yl)phenyl)pyridin-3-yl)-7-methyl-8,9-dihydropyrido[3′,2′:4,5]pyrrolo[1,2-a]pyrazin-6(7H)-one] | < 5000 | 1000 to 2500
9 | CN1CCn2c(cc3c(-c4cncc(-c5ccc(-c6nncn6C6CCC6)cc5)c4)ccnc32)C1=O [Example 365, 4-(5-(4-(4-cyclobutyl-4H-1,2,4-triazol-3-yl)phenyl)pyridin-3-yl)-7-methyl-8,9-dihydropyrido[3′,2′:4,5]pyrrolo[1,2-a]pyrazin-6(7H)-one] | 1000 to 2500 | 10 to 100
10 | CNC(=O)c1cc2c(-c3cnc(N)c(-c4ccc(-c5nncn5CC(C)C)cc4)c3)ccnc2o1 [Example 366, 4-(6-amino-5-(4-(4-isobutyl-4H-1,2,4-triazol-3-yl)phenyl)pyridin-3-yl)-N-methylfuro[2,3-b]pyridine-2-carboxamide] | 5 to 100 | 10 to 100
11 | CC(C)Cn1cnnc1-c1ccc(-c2cncc(-c3ccnc4c3cc3n4CCN(c4ccccn4)C3=O)c2)cc1 [Example 367, 4-(5-(4-(4-isobutyl-4H-1,2,4-triazol-3-yl)phenyl)pyridin-3-yl)-7-(pyridin-2-yl)-8,9-dihydropyrido[3′,2′:4,5]pyrrolo[1,2-a]pyrazin-6(7H)-one] | 2500 to 5000 | 1 to 10
12 | CC(C)c1cnnn1-c1ccc(-c2cncc(-c3ccnc4c3cc3n4CCN(C)C3=O)c2)cc1 [Example 368, 4-(5-(4-(5-isopropyl-1H-1,2,3-triazol-1-yl)phenyl)pyridin-3-yl)-7-methyl-8,9-dihydropyrido[3′,2′:4,5]pyrrolo[1,2-a]pyrazin-6(7H)-one] | 5 to 100 | 1 to 10
13 | CN1CCn2c(cc3c(-c4cncc(-c5ccc(-c6nncn6CCC6CC6)cc5)c4)ccnc32)C1=O [Example 369] | 100 to 1000 | 10 to 100
14 | Cc1ccnnc1-c1ccc(-c2cncc(-c3ccnc4c3cc3n4CCN(C)C3=O)c2)cc1 [Example 370, 7-methyl-4-(5-(4-(4-methylpyridazin-3-yl)phenyl)pyridin-3-yl)-8,9-dihydropyrido[3′,2′:4,5]pyrrolo[1,2-a]pyrazin-6(7H)-one] | 5 to 100 | 1 to 10
15 | CC(C)n1cnnc1-c1ccc(-c2cncc(-c3ccnc4[nH]c(C(=O)NCCc5ccncc5)cc34)c2)cc1 [Example 371, 4-(5-(4-(4-isopropyl-4H-1,2,4-triazol-3-yl)phenyl)pyridin-3-yl)-N-(2-(pyridin-4-yl)ethyl)-1H-pyrrolo[2,3-b]pyridine-2-carboxamide] | 100 to 1000 | 10 to 100
16 | CC(C)Cn1cnnc1-c1ccc(-c2cncc(-c3ccnc4[nH]c(C(=O)NCc5ccccc5)cc34)c2)cc1 [Example 372, N-benzyl-4-(5-(4-(4-isobutyl-4H-1,2,4-triazol-3-yl)phenyl)pyridin-3-yl)-1H-pyrrolo[2,3-b]pyridine-2-carboxamide] | 1000 to 2500 | 10 to 100
17 | CC(C)n1cnnc1-c1ccc(-c2cncc(-c3ccnc4[nH]c(C(=O)NCc5ccccc5)cc34)c2)cc1 [Example 373, N-benzyl-4-(5-(4-(4-isopropyl-4H-1,2,4-triazol-3-yl)phenyl)pyridin-3-yl)-1H-pyrrolo[2,3-b]pyridine-2-carboxamide] | 100 to 1000 | 10 to 100
18 | CC(C)n1cnnc1-c1ccc(-c2cc(-c3ccnc4c3cc3n4CCN(CC4CC4)C3=O)cnc2N)cc1 [Example 374, 4-(6-amino-5-(4-(4-isopropyl-4H-1,2,4-triazol-3-yl)phenyl)pyridin-3-yl)-7-(cyclopropylmethyl)-8,9-dihydropyrido[3′,2′:4,5]pyrrolo[1,2-a]pyrazin-6(7H)-one] | 100 to 1000 | 1 to 10
19 | CC(C)c1conc1-c1ccc(-c2cncc(-c3ccnc4c3cc3n4CCN(C)C3=O)c2)cc1 [Example 375, 4-(5-(4-(4-isopropylisoxazol-3-yl)phenyl)pyridin-3-yl)-7-methyl-8,9-dihydropyrido[3′,2′:4,5]pyrrolo[1,2-a]pyrazin-6(7H)-one] | 100 to 1000 | 10 to 100
20 | CN1CCn2c(cc3c(-c4cncc(-c5ccc(-c6nncn6CC6CC6)cc5)c4)ccnc32)C1=O [Example 376, 4-(5-(4-(4-(cyclopropylmethyl)-4H-1,2,4-triazol-3-yl)phenyl)pyridin-3-yl)-7-methyl-8,9-dihydropyrido[3′,2′:4,5]pyrrolo[1,2-a]pyrazin-6(7H)-one] | 1000 to 2500 | 10 to 100
21 | CN1CCn2c(cc3c(-c4cncc(-c5ccc(-c6nncn6C(C)(C)C)cc5)c4)ccnc32)C1=O [Example 377, 4-(5-(4-(4-(tert-butyl)-4H-1,2,4-triazol-3-yl)phenyl)pyridin-3-yl)-7-methyl-8,9-dihydropyrido[3′,2′:4,5]pyrrolo[1,2-a]pyrazin-6(7H)-one] | 5 to 100 | 1 to 10
22 | CC(C)n1cnnc1-c1ccc(-c2cncc(-c3ccnc4[nH]c(C(=O)NCc5cccnc5)cc34)c2)cc1 [Example 378, 4-(5-(4-(4-isopropyl-4H-1,2,4-triazol-3-yl)phenyl)pyridin-3-yl)-N-(pyridin-3-ylmethyl)-1H-pyrrolo[2,3-b]pyridine-2-carboxamide] | 100 to 1000 | 10 to 100
23 | O=C(NCc1cccc2c1B(O)OC2)c1cc2c(-c3cncc(-c4ccc(N5CCCC5=O)cc4)c3)ccnc2[nH]1 [Example 379, N-((1-hydroxy-1,3-dihydrobenzo[c][1,2]oxaborol-7-yl)methyl)-4-(5-(4-(2-oxopyrrolidin-1-yl)phenyl)pyridin-3-yl)-1H-pyrrolo[2,3-b]pyridine-2-carboxamide] | 5 to 100 | 10 to 100
